# Measurements from patent US6797462B1, “Cell-based assay for immunodeficiency virus infectivity and sensitivity” (UAB Research Foundation, priority 1998, dated 2004).
# Tested on: HIV YU2
# Test: Protease inhibitor sensitivity: J53tat cells infected with HIV YU2 with drug, supernatant used to infect J53BL cells
# Format: cell-based, HIV-1
# Conditions: for Number of colony formed in the presence of protease Inhibitor Indinavir: YU2, J53tat then J53BL
# Experimental: The J53tat cell line is used to produce virus and thereby enable viral testing of drug candidates that affect various stages of the virus life cycle. Thus, viral drug resistance mutations in early stage targets such as reverse transcriptase (RT), integrase (IN) and env; and late stage targets such as protease and Gag are analyzed by the methods of the present invention. The J53tat cells are infected with HIV YU2 (MOI of either 0.2 or 0.04), and protease inhibitor (indinavir) is added to the cultures at various concentrations. Forty hours after infection the culture supernatant is collected and used to infect the J53BL cell line in the presence of the same drug concentrations.
compound,measurement,setting,value
CC(C)(C)NC(=O)[C@@H]1CN(Cc2cccnc2)CCN1C[C@@H](O)C[C@@H](Cc1ccccc1)C(=O)N[C@H]1c2ccccc2C[C@H]1O [indinavir],Number of colony formed in the presence of protease Inhibitor Indinavir,"0.04 M.O.I, 0.008 MM indinavir",105
same,Number of colony formed in the presence of protease Inhibitor Indinavir,"0.04 M.O.I, 0.2 MM indinavir",2
same,Number of colony formed in the presence of protease Inhibitor Indinavir,"0.04 M.O.I, 1.0 MM indinavir",0
same,Number of colony formed in the presence of protease Inhibitor Indinavir,0.04 M.O.I,2
same,Number of colony formed in the presence of protease Inhibitor Indinavir,"0.2 M.O.I, 0.008 MM indinavir",>1000
same,Number of colony formed in the presence of protease Inhibitor Indinavir,"0.2 M.O.I, 0.2 MM indinavir",99
same,Number of colony formed in the presence of protease Inhibitor Indinavir,"0.2 M.O.I, 1.0 MM indinavir",0
same,Number of colony formed in the presence of protease Inhibitor Indinavir,0.2 M.O.I,343
same,Sensitivity of YU2 to protease inhibitor,increasing concentrations causing greater inhibition,sensitive
